Source: US20110028458A1, “INHIBITION OF CELL MIGRATION BY A FARNESYLATED DIBENZODIAZEPINONE” (THALLION PHARMACEUTICALS INC., priority 2008, published 2011)
Like-named read-outs stand apart in the source and are kept apart here.

What was measured:
MDA-MB-231 = test: MTT growth inhibitory assay, MDA-MB-231; assay type: cell-based, human; conditions: 72 hours
Experimental: (§1) Growth inhibitory activity of TLN-4601 (Compound 1) and other dibenzodiazepinone analogs was evaluated on a panel of 4 human tumor cell lines: the human uterine sarcoma MES-SA and its doxorubicin-resistant P-glycoprotein over-expressing variant, MES-SA/DX5 as well as non-aggressive and highly aggressive human breast cell lines, MCF-7 and MDA-MB-231, respectively. These four cell lines were obtained from the American Type Culture Collection (Manassas, Va.) and cultured in RPMI plus 10% fetal bovine serum (FBS) and maintained at 37° C. with 5% CO2.
(§2) Exponentially growing cells (5,000 cells per well time; cell number determined with a hemocytometer) were seeded in 96-well flat-bottom plates and allowed to grow overnight. Cells were then incubated for 72 hours with three different concentrations of TLN-4601 or analogs: 30, 10, and 3 μM. The in vitro growth inhibitory activity was determined by a commercial MTT assay. All measurements were done in quadruplicate and each experiment was performed 2-3 times. The lower the value, the more cytotoxic is the compound.

SRBC = test: Hemolysis of SRBC; assay type: cell-based
MCF-7 = test: MTT growth inhibitory assay, MCF-7; assay type: cell-based, human; conditions: 72 hours
Experimental: as §1, §2

MES-SA/DX5 = test: MTT growth inhibitory assay, MES-SA/DX5; assay type: cell-based, human; conditions: 72 hours
Experimental: as §1, §2

MES-SA = test: MTT growth inhibitory assay, MES-SA; assay type: cell-based, human; conditions: 72 hours
Experimental: as §1, §2

PBR = target: T1, PBR (Rattus norvegicus, UniProt P16257); test: In-house PBR binding assay, [3H]PK11195, rat heart mitochondrial membrane
T1 construct: containing the enriched mitochondria membrane preparation (25 μg of protein); from tissue; host or cells: Sprague Dawley rat heart, enriched mitochondrial membrane preparation

[1] = TLN-4601 concentrations in plasma and tissues of rats with C6 orthotopic brain tumors; assay type: in vivo; conditions: rat; for concentration at 60 min: CIV for 60 min
Experimental: (R)-1-(2-chlorophenyl)-[…]N-(1-methyl-propyl)-3-isoquinoline carboxamide (R N-desmethyl PK11195), the precursor for the radioisotope-labeled (R)-PK11195, was purchased from ABX (Radeburg, Germany). The synthesis of ^11C-(R)-PK11195 was accomplished by a modification of the method of Camsonne et al. (J. Label. Compd. Radiopharm., 21: 985-991, 1984). In vivo PET studies were performed 14 days post tumor implantation. PET imaging studies were performed while the animals were anesthetized and placed in the supine position on the bed and at the center of the FOV of the CTI Concorde R4 microPET scanner (Siemens/CTI Concorde, Knoxville, Tenn.). Each dynamic PET study lasted 60 min and was initiated with an IV bolus administration of 11C-PK11195 (7.1-12.7 MBq) radioligand via the tail vein. Receptor occupancy studies were performed by acquisition of 11C-PK11195 images prior to and during TLN-4601 treatment over 60 minutes. TLN-4601 was administered by a bolus IV infusion (30 mg/kg) followed by continuous IV infusion (5 mg/h/kg) lasting through the dynamic scan. Attenuation correction factors, for each 6 rats, were determined using a 10 minute 57 Co transmission scan acquired immediately prior to the dynamic scan. In addition, all images were scatter corrected.
Following completion of in vivo studies, animals were sacrificed by anesthetic overdose and decapitated. Brain, tumor, and liver were snap-frozen in liquid nitrogen and stored frozen (−70° C.±10° C.). For blood samples, each blood sample was collected into a K2-EDTA tube and kept on wet ice for a maximum of 30 minutes. Blood samples were centrifuged under refrigeration (2 to 8° C.) for 10 minutes at 1,500 g (RCF). A volume of 25 μL of aqueous 4% w/v L-ascorbic acid was added to a volume of 225 μL of rat plasma in a clean tube, and the samples were thoroughly mixed by inversion. A volume of 125 uL of the resulting mixture was transferred to a separate tube for bioanalysis, while the remaining mixture was maintained as a backup, and both the bioanalysis and back-up portions were frozen on dry ice and stored frozen (−70° C.±10° C.).
Rat plasma and tissue samples were extracted with 9 volumes of acetone containing 100 ng/mL of the internal standard (Compound 2) and analysed by HPLC/MS/MS as described in Gourdeau et al (Cancer Chemother Pharmacol vol 61 pp. 911-921).

[2] = system: breast carcinoma tumor cell lines; test: NCI panel, breast carcinoma; assay type: cell-based; conditions: Homo sapiens; read-out: GI50 range, breast carcinoma
Description: (§3) A study measuring the in vitro cytotoxic activity of Compound 1 was first performed by the NCI (National Cancer Institute, U.S. National Institutes of Health, Bethesda, Md., USA) against a panel of human cancer cell lines. This screen utilizes 60 different human tumor cell lines, representing cancers of the blood, skin, lung, colon, brain, ovary, breast, prostate, and kidney. Further information regarding the NCI panel of human cancer lines can be obtained by following the links at the NCI world-wide website of the National Cancer Institute. The compound was sent and tested on three occasions (Mar. 31, 2003; Dec. 1, 2003; Mar. 27, 2007).

[3] = system: 60 different human tumor cell lines; test: NCI in vitro screening, 60 human tumor cell lines; assay type: cell-based; conditions: 60 cell lines
Description: as §3

[4] = system: U87 glioma cells and HVMEC-B; test: Fluorimetric caspase-3 activity, U87 glioma versus brain endothelial cells; assay type: cell-based, human; conditions: 0-30 μM, 18 hours
Experimental: To test the effect of Compound 1 on caspase 3 activity in endothelial cells, the following experiment was conducted. HVMEC-B and U87 glioma cells were treated with increasing concentrations of Compound 1 (0-30 μM) in serum-free media for 18 hours. Fluorimetric caspase-3 activity assay was performed as follows: cells were grown to about 60% confluence in 6-well dishes and treated with increasing concentrations of Compound 1 for 18 hours. Cells were then collected and washed in ice-cold PBS pH 7.0. Cells were subsequently lysed in Apo-Alert lysis buffer (Clontech, Palo Alto, Calif.) for 1 hr at 4° C. and the lysates were clarified by centrifugation. Caspase-3 activity was determined by incubation with 50 μM caspase-3-specific fluorogenic peptide substrate acetyl-Asp-Glu-Val-Asp-7-amino-4-trifluoromethylcoumarin (Ac-DEVD-AFC) in 96-well plates. The release of AFC was monitored for at least 30 min at 37° C. on a fluorescence plate reader (Molecular Dynamics (Amersham Biosciences Inc, Sunnyvale, Calif.)) (λex=400 nm, λem=505 nm).

[5] = system: ovarian carcinoma tumor cell lines; test: NCI panel, ovarian carcinoma; assay type: cell-based; conditions: Homo sapiens; read-out: GI50 range, ovarian carcinoma
Description: as §3

U87 parental = test: Caspase-3 activity, U87 parental cells; assay type: cell-based, human; conditions: 18 h, serum-free medium
Experimental: Firstly, cells (U87 parental, U87 transfected with EGFR-WT, and U87 transfected with mutated EGFR VIII) were plated in 6 well plates in DMEM containing 10% FBS. The following day, the plated cells were treated with increasing concentrations of Compound 1 (TLN-4601) in serum-free medium. After an 18 h incubation period in the presence of Compound 1, the treated cells were measured for caspase-3 activity using a commercial kit.

[6] = system: colon carcinoma tumor cell lines; test: NCI panel, colon carcinoma; assay type: cell-based; conditions: Homo sapiens; read-out: GI50 range, colon carcinoma
Description: as §3

Row | IC50 (PBR) [nM] | concentration at 60 min ([1]; Sprague-Dawley, liver, intravenous, read-out: concentration in liver) [ng/g] | concentration at 60 min ([1]; Sprague-Dawley, plasma, intravenous, read-out: concentration in plasma) [ng/g] | Kp at 60 min ([1]; Sprague-Dawley, tumor / plasma, intravenous, read-out: tumor compared to plasma) | concentration at 60 min ([1]; Sprague-Dawley, tumor, intravenous, read-out: accumulation in the tumor) [µg/mL] | tumor compared to liver ([1]; in vivo) [fold] | SMILES | % T/C at 10 μM, MDA-MB-231 (MDA-MB-231) [%] | Hemolysis ED50 (concentration necessary to achieve 50% hemolysis of SRBC) (SRBC) [µg/mL] | % T/C at 10 μM, MCF-7 (MCF-7) [%] | % T/C at 10 μM, MES-SA/DX5 (MES-SA/DX5) [%] | % T/C at 10 μM, MES-SA (MES-SA) [%] | GI50 [2] [nM] | cytotoxic activity in the NCI panel [3] | caspase-3 activity of U87 glioma cells compared to normal human brain endothelial cells [4] | GI50 [5] [nM] | increase in caspase-3 activation (U87 parental) | GI50 [6] [nM]
1 | 2600 | – | – | – | – | – | CC(C)=CCC/C(C)=C/CC/C(C)=C/CN1C(=O)c2cccc(O)c2Nc2c1cc(O)c(Br)c2O [Compound 97] | 68 | 15.1 | 28 | 83 | 80 | – | – | – | – | – | –
2 | – | – | – | – | – | – | CC(C)=CCC/C(C)=C/CC/C(C)=C/CN1C(=O)c2cccc(O)c2N(C)c2c1cc(O)c(Br)c2O [Compound 99] | 55 | – | 50 | 24 | 28 | – | – | – | – | – | –
3 | – | 24800 | 16200 | 11 | 176 | 7 | CC(C)=CCC/C(C)=C/CC/C(C)=C/CN1C(=O)c2cccc(O)c2Nc2c(O)cc(O)cc21 [Compound 1, 10-farnesyl-4,6,8-trihydroxy-5,10-dihydrodibenzo[b,e][1,4]diazepin-11-one] | – | 7.6 | – | – | – | 1400 to 16300 | broad cytotoxic activity in the low micromolar range | 2-3 fold | 2500 to 6200 | approximately 15 fold | 3000 to 17300
